Measured values taken from ChEMBL document CHEMBL1152890, “Synthesis and evaluation of a novel series of heterocyclic oleanolic acid derivatives with anti-osteoclast formation activity” (Eur J Med Chem, 2009).

Key:
Type in all cases: functional
[1] = Antiosteoclast activity in ICR mouse osteoblast like cells co-cultured with bone marrow cells assessed as effect on 1-alpha,25(OH)2D3-induced TRAP-positive osteoclast like multinucleated cell formation at 20 uM after 6 days medium replaced every 2 days relative to control
[2] = Antiosteoclast activity in ICR mouse osteoblast like cells co-cultured with bone marrow cells assessed as recovery of 1-alpha,25(OH)2D3-induced TRAP-positive osteoclast like multinucleated cell formation at 20 uM after 6 days drug removal after 2 days relative to control
[3] = Antiosteoclast activity in ICR mouse osteoblast like cells co-cultured with bone marrow cells assessed as effect on 1-alpha,25(OH)2D3-induced TRAP-positive osteoclast like multinucleated cell formation at 2 uM after 6 days medium replaced every 2 days relative to control

| SMILES | Activity [1] [%] | Activity [2] [%] | Activity [3] [%] |
| --- | --- | --- | --- |
| COC(=O)[C@H](Cc1ccccc1)NC(=O)[C@]12CCC(C)(C)C[C@H]1C1=CC[C@@H]3[C@@]4(C)Cc5c([nH]c6ccccc56)C(C)(C)[C@@H]4CC[C@@]3(C)[C@]1(C)CC2 | 0 | 79.8 | 69.2 |
| COC(=O)[C@H](CC(C)C)NC(=O)[C@]12CCC(C)(C)C[C@H]1C1=CC[C@@H]3[C@@]4(C)CCC(=O)C(C)(C)[C@@H]4CC[C@@]3(C)[C@]1(C)CC2 | 92.9 | 100.2 |  |
| CC1(C)CC[C@]2(C(=O)O)CC[C@]3(C)C(=CC[C@@H]4[C@@]5(C)Cc6nc7ccccc7nc6C(C)(C)[C@@H]5CC[C@]43C)[C@@H]2C1 | 0 | 92.6 | 72.7 |
| C[C@H](NC(=O)[C@]12CCC(C)(C)C[C@H]1C1=CC[C@@H]3[C@@]4(C)Cc5nccnc5C(C)(C)[C@@H]4CC[C@@]3(C)[C@]1(C)CC2)C(=O)O | 76.5 |  |  |
| CC1(C)CC[C@]2(C(=O)N[C@@H](Cc3ccccc3)C(=O)O)CC[C@]3(C)C(=CC[C@@H]4[C@@]5(C)Cc6nc7ccccc7nc6C(C)(C)[C@@H]5CC[C@]43C)[C@@H]2C1 | 75.4 |  |  |
| COC(=O)[C@H](Cc1ccccc1)NC(=O)[C@]12CCC(C)(C)C[C@H]1C1=CC[C@@H]3[C@@]4(C)CCC(=O)C(C)(C)[C@@H]4CC[C@@]3(C)[C@]1(C)CC2 | 82.3 | 99.1 |  |
| COC(=O)[C@@H](NC(=O)[C@]12CCC(C)(C)C[C@H]1C1=CC[C@@H]3[C@@]4(C)Cc5c([nH]c6ccccc56)C(C)(C)[C@@H]4CC[C@@]3(C)[C@]1(C)CC2)C(C)C | 99 |  |  |
| CC[C@H](C)[C@H](NC(=O)[C@]12CCC(C)(C)C[C@H]1C1=CC[C@@H]3[C@@]4(C)Cc5c([nH]c6ccc(Cl)cc56)C(C)(C)[C@@H]4CC[C@@]3(C)[C@]1(C)CC2)C(=O)O | 0 | 0 | 86.9 |
| COC(=O)[C@H](CC(C)C)NC(=O)[C@]12CCC(C)(C)C[C@H]1C1=CC[C@@H]3[C@@]4(C)Cc5c([nH]c6ccc(Cl)cc56)C(C)(C)[C@@H]4CC[C@@]3(C)[C@]1(C)CC2 | 86 |  |  |
| CC(C)C[C@H](NC(=O)[C@]12CCC(C)(C)C[C@H]1C1=CC[C@@H]3[C@@]4(C)CCC(=O)C(C)(C)[C@@H]4CC[C@@]3(C)[C@]1(C)CC2)C(=O)O | 100.6 |  |  |
| COC(=O)[C@H](CC(C)C)NC(=O)[C@]12CCC(C)(C)C[C@H]1C1=CC[C@@H]3[C@@]4(C)Cc5c([nH]c6ccccc56)C(C)(C)[C@@H]4CC[C@@]3(C)[C@]1(C)CC2 | 96.8 |  |  |
| CC1(C)CC[C@]2(C(=O)NCC(=O)O)CC[C@]3(C)C(=CC[C@@H]4[C@@]5(C)Cc6nc7ccccc7nc6C(C)(C)[C@@H]5CC[C@]43C)[C@@H]2C1 | 91.9 |  |  |
| CC1(C)CC[C@]2(C(=O)O)CC[C@]3(C)C(=CC[C@@H]4[C@@]5(C)Cc6c([nH]c7ccc(C(=O)O)cc67)C(C)(C)[C@@H]5CC[C@]43C)[C@@H]2C1 | 0 | 97.8 | 77.2 |
| CC1(C)CC[C@]2(C(=O)NCC(=O)O)CC[C@]3(C)C(=CC[C@@H]4[C@@]5(C)Cc6c([nH]c7ccc(Cl)cc67)C(C)(C)[C@@H]5CC[C@]43C)[C@@H]2C1 | 0 | 0 | 74.2 |
| CC[C@H](C)[C@H](NC(=O)[C@]12CCC(C)(C)C[C@H]1C1=CC[C@@H]3[C@@]4(C)CCC(=O)C(C)(C)[C@@H]4CC[C@@]3(C)[C@]1(C)CC2)C(=O)O | 100.3 |  |  |
| C[C@H](NC(=O)[C@]12CCC(C)(C)C[C@H]1C1=CC[C@@H]3[C@@]4(C)CCC(=O)C(C)(C)[C@@H]4CC[C@@]3(C)[C@]1(C)CC2)C(=O)O | 100 |  |  |
| CC[C@H](C)[C@H](NC(=O)[C@]12CCC(C)(C)C[C@H]1C1=CC[C@@H]3[C@@]4(C)CCC(=O)C(C)(C)[C@@H]4CC[C@@]3(C)[C@]1(C)CC2)C(=O)OC | 1.4 |  | 94 |
| CC1(C)CC[C@]2(C(=O)NCC(=O)O)CC[C@]3(C)C(=CC[C@@H]4[C@@]5(C)Cc6nccnc6C(C)(C)[C@@H]5CC[C@]43C)[C@@H]2C1 | 85.1 |  |  |
| CC(C)C[C@H](NC(=O)[C@]12CCC(C)(C)C[C@H]1C1=CC[C@@H]3[C@@]4(C)Cc5c([nH]c6ccccc56)C(C)(C)[C@@H]4CC[C@@]3(C)[C@]1(C)CC2)C(=O)O | 0 | 80.5 | 98.2 |
| CC1(C)CC[C@]2(C(=O)O)CC[C@]3(C)C(=CC[C@@H]4[C@@]5(C)Cc6nc7cc([N+](=O)[O-])ccc7nc6C(C)(C)[C@@H]5CC[C@]43C)[C@@H]2C1 | 24.1 |  | 88.7 |
| C[C@H](NC(=O)[C@]12CCC(C)(C)C[C@H]1C1=CC[C@@H]3[C@@]4(C)Cc5nc6ccccc6nc5C(C)(C)[C@@H]4CC[C@@]3(C)[C@]1(C)CC2)C(=O)O | 96.5 |  |  |

| SMILES | Activity [1] [%] | Activity [2] [%] | Activity [3] [%] |
| --- | --- | --- | --- |
| CC(C)[C@H](NC(=O)[C@]12CCC(C)(C)C[C@H]1C1=CC[C@@H]3[C@@]4(C)Cc5nccnc5C(C)(C)[C@@H]4CC[C@@]3(C)[C@]1(C)CC2)C(=O)O | 83.5 |  |  |
| CC(C)[C@H](NC(=O)[C@]12CCC(C)(C)C[C@H]1C1=CC[C@@H]3[C@@]4(C)Cc5c([nH]c6ccccc56)C(C)(C)[C@@H]4CC[C@@]3(C)[C@]1(C)CC2)C(=O)O | 6.1 |  | 70.8 |
| CC1(C)CC[C@]2(C(=O)N[C@@H](Cc3ccccc3)C(=O)O)CC[C@]3(C)C(=CC[C@@H]4[C@@]5(C)Cc6nccnc6C(C)(C)[C@@H]5CC[C@]43C)[C@@H]2C1 | 89.4 |  |  |
| COC(=O)[C@H](C)NC(=O)[C@]12CCC(C)(C)C[C@H]1C1=CC[C@@H]3[C@@]4(C)Cc5c([nH]c6ccc(Cl)cc56)C(C)(C)[C@@H]4CC[C@@]3(C)[C@]1(C)CC2 | 10.1 |  | 79.9 |
| CC[C@H](C)[C@H](NC(=O)[C@]12CCC(C)(C)C[C@H]1C1=CC[C@@H]3[C@@]4(C)Cc5c([nH]c6ccccc56)C(C)(C)[C@@H]4CC[C@@]3(C)[C@]1(C)CC2)C(=O)O | 84.4 |  |  |
| COC(=O)CNC(=O)[C@]12CCC(C)(C)C[C@H]1C1=CC[C@@H]3[C@@]4(C)Cc5nccnc5C(C)(C)[C@@H]4CC[C@@]3(C)[C@]1(C)CC2 | 41.1 |  | 93.5 |
| CC1(C)CC[C@]2(C(=O)NCC(=O)O)CC[C@]3(C)C(=CC[C@@H]4[C@@]5(C)CCC(=O)C(C)(C)[C@@H]5CC[C@]43C)[C@@H]2C1 | 103 |  |  |
| CC1(C)CC[C@]2(C(=O)O)CC[C@]3(C)C(=CC[C@@H]4[C@@]5(C)Cc6c([nH]c7ccccc67)C(C)(C)[C@@H]5CC[C@]43C)[C@@H]2C1 | 51.1 |  | 94.6 |
| CC1(C)CC[C@]2(C(=O)O)CC[C@]3(C)C(=CC[C@@H]4[C@@]5(C)CCC(=O)C(C)(C)[C@@H]5CC[C@]43C)[C@@H]2C1 [OLEANONIC ACID] | 1.4 |  | 79.2 |
| COC(=O)[C@@H](NC(=O)[C@]12CCC(C)(C)C[C@H]1C1=CC[C@@H]3[C@@]4(C)Cc5c([nH]c6ccc(Cl)cc56)C(C)(C)[C@@H]4CC[C@@]3(C)[C@]1(C)CC2)C(C)C | 21.1 |  | 90.8 |
| COC(=O)[C@H](C)NC(=O)[C@]12CCC(C)(C)C[C@H]1C1=CC[C@@H]3[C@@]4(C)CCC(=O)C(C)(C)[C@@H]4CC[C@@]3(C)[C@]1(C)CC2 | 29.3 |  | 68.7 |
| C[C@H](NC(=O)[C@]12CCC(C)(C)C[C@H]1C1=CC[C@@H]3[C@@]4(C)Cc5c([nH]c6ccccc56)C(C)(C)[C@@H]4CC[C@@]3(C)[C@]1(C)CC2)C(=O)O | 21 |  | 90.2 |
| CC[C@H](C)[C@H](NC(=O)[C@]12CCC(C)(C)C[C@H]1C1=CC[C@@H]3[C@@]4(C)Cc5c([nH]c6ccc(Cl)cc56)C(C)(C)[C@@H]4CC[C@@]3(C)[C@]1(C)CC2)C(=O)OC | 82.4 |  |  |
| CC(C)[C@H](NC(=O)[C@]12CCC(C)(C)C[C@H]1C1=CC[C@@H]3[C@@]4(C)CCC(=O)C(C)(C)[C@@H]4CC[C@@]3(C)[C@]1(C)CC2)C(=O)O | 99.8 |  |  |
| CC[C@H](C)[C@H](NC(=O)[C@]12CCC(C)(C)C[C@H]1C1=CC[C@@H]3[C@@]4(C)Cc5c([nH]c6ccccc56)C(C)(C)[C@@H]4CC[C@@]3(C)[C@]1(C)CC2)C(=O)OC | 98.4 |  |  |
| CC[C@H](C)[C@H](NC(=O)[C@]12CCC(C)(C)C[C@H]1C1=CC[C@@H]3[C@@]4(C)Cc5nc6ccccc6nc5C(C)(C)[C@@H]4CC[C@@]3(C)[C@]1(C)CC2)C(=O)OC | 78.5 |  |  |
| COC(=O)CNC(=O)[C@]12CCC(C)(C)C[C@H]1C1=CC[C@@H]3[C@@]4(C)Cc5c([nH]c6ccc(Cl)cc56)C(C)(C)[C@@H]4CC[C@@]3(C)[C@]1(C)CC2 | 0 |  | 66.6 |
| CC1(C)CC[C@]2(C(=O)N[C@@H](Cc3ccccc3)C(=O)O)CC[C@]3(C)C(=CC[C@@H]4[C@@]5(C)Cc6c([nH]c7ccccc67)C(C)(C)[C@@H]5CC[C@]43C)[C@@H]2C1 | 58 |  |  |
| CC1(C)CC[C@]2(C(=O)N[C@@H](Cc3ccccc3)C(=O)O)CC[C@]3(C)C(=CC[C@@H]4[C@@]5(C)CCC(=O)C(C)(C)[C@@H]5CC[C@]43C)[C@@H]2C1 | 80.7 |  |  |
| COC(=O)[C@@H](NC(=O)[C@]12CCC(C)(C)C[C@H]1C1=CC[C@@H]3[C@@]4(C)CCC(=O)C(C)(C)[C@@H]4CC[C@@]3(C)[C@]1(C)CC2)C(C)C | 100.6 |  |  |
| CC1(C)CC[C@]2(C(=O)NCC(=O)O)CC[C@]3(C)C(=CC[C@@H]4[C@@]5(C)Cc6c([nH]c7ccccc67)C(C)(C)[C@@H]5CC[C@]43C)[C@@H]2C1 | 9 |  | 95.2 |
